Experimental data taken from paper PMC8338929, “Acetylation turns leucine into a drug by membrane transporter switching” (Scientific Reports, 2021).

Legend:
Human OAT3 (SLC22A8) [1] = biological target: T1, Human OAT3 (SLC22A8) (Homo sapiens, UniProt Q8TCC7); assay: Inhibition of OAT3 uptake of probe substrate estrone-3-sulfate in HEK-293 cells; assay type: cell-based; conditions: probe estrone-3-sulfate 2 µM; positive control diclofenac 100 µM
T1 construct: host or cells: HEK-293
T1 sequence (Q8TCC7 1-542): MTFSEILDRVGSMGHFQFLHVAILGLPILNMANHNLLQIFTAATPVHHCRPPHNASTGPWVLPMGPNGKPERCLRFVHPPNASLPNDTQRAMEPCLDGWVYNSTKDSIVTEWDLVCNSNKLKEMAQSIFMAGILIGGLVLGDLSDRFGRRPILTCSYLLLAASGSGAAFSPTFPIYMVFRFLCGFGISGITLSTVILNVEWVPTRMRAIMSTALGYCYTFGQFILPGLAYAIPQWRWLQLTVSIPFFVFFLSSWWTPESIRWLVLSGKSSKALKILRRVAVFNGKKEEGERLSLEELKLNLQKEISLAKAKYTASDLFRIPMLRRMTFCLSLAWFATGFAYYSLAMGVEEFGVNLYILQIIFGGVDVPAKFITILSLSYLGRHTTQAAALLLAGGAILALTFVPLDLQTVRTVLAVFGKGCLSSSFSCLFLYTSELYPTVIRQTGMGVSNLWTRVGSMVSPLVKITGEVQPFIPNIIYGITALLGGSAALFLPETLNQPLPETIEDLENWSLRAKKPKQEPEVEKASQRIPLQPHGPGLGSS
Protocol: (§1) Cells were grown in DMEM (Gibco 4196, high glucose, without sodium pyruvate) supplemented with MEM non-essential amino acids and 10% fetal bovine serum. Cells were re-fed with fresh medium after attachment (4–6 h post-seeding). Cell were plated at a density of 4 × 10^5/well in 24-well plates coated with poly-D-lysine. Transporter assays were conducted in 400 µL of HBSS supplemented with 10 mM Hepes, pH 7.4
The known probe substrates used as positive controls were 3 μM chlorothiazide for OAT1, 2 μM estrone-3-sulfate for OAT3, 10 µM [^3H]gabapentin for LAT1, 50 µM [^3H]Gly-Sar for PepT1, 500 µM thiophene-2-glyoxylic acid for MCT1. The known inhibitors used as controls for each transporter were 100 μM diclofenac for OAT1 and OAT3, 10 µM JPH203 for LAT1 and 200 µM losartan for PepT1. All incubations were in triplicate and contained 1% (OAT1 and OAT3) or 0.5% DMSO (LAT, PepT1 and MCT1). […]
[I] is the inhibitor concentration and IC50 is the inhibitor concentration where the remaining activity is at the midpoint between the Top and Bottom. […] In inhibition experiments, the IC50 is not equivalent to affinity because it is dependent on the concentrations of the substrate, the inhibitor and affinity; therefore, we assumed competitive inhibition, and calculated affinity of inhibition (Ki) with the Cheng-Prusoff equation[49].

Human OAT3 (SLC22A8) [2] = biological target: T1, Human OAT3 (SLC22A8); assay: OAT3-mediated cellular uptake in overexpressing HEK-293 cells; assay type: cell-based
Protocol: as §1
The known probe substrates used as positive controls were 3 μM chlorothiazide for OAT1, 2 μM estrone-3-sulfate for OAT3, 10 µM [^3H]gabapentin for LAT1, 50 µM [^3H]Gly-Sar for PepT1, 500 µM thiophene-2-glyoxylic acid for MCT1. The known inhibitors used as controls for each transporter were 100 μM diclofenac for OAT1 and OAT3, 10 µM JPH203 for LAT1 and 200 µM losartan for PepT1. All incubations were in triplicate and contained 1% (OAT1 and OAT3) or 0.5% DMSO (LAT, PepT1 and MCT1). The duration of uptake was 5 min for OAT1 and OAT3, 3 min for LAT1 and PepT1 and 1 min for MCT1. Assays were performed at 37 °C with no shaking, except MCT1 at room temperature. To determine uptake due to the overexpressed transporter per se, uptake was taken as the difference between accumulation between transfected and nontransfected cells in parallel experiments at the same concentration and time. To terminate uptake the plate was placed on ice and cells washed twice with ice-cold transport buffer. […]

For CC(=O)N[C@@H](CC(C)C)C(=O)O [N-acetyl-L-leucine], the IC50 (Human OAT3 (SLC22A8) [1]) was 700 µM, the “Vmax OAT3 uptake” value (Human OAT3 (SLC22A8) [2]; Michaelis-Menten fit) was 138 and the “substrate of OAT3 (uptake)” value (Human OAT3 (SLC22A8) [2]; pH 7.4, 5 min) was “substrate”.
